T1: OsLAT1 (Oryza sativa, UniProt Q6Z8D0)
T1 sequence (Q6Z8D0 1-531): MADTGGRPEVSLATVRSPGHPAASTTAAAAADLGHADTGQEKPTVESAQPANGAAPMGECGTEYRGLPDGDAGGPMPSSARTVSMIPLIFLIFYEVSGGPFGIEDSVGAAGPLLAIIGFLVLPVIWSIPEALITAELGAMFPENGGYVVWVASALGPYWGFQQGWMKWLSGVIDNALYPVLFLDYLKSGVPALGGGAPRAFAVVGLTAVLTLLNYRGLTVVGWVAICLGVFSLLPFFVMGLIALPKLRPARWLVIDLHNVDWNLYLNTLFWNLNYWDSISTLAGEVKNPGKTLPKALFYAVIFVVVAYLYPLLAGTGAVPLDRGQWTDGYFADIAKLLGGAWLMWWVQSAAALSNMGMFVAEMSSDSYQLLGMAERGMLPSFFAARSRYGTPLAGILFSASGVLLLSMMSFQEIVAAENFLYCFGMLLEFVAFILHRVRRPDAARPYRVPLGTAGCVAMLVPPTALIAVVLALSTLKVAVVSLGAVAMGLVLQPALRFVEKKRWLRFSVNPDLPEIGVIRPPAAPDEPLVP


Columns and labels:
Conditions in all cases: 5-50 uM substrate, 1 h, 0.333 mM MES pH 5.7, 2% galactose
OsLAT5 = assay: uptake into yeast, UPLC-MS/MS, vector control subtracted; format: cell-based, Oryza sativa subsp. japonica
OsLAT1 = biological target: T1, OsLAT1; assay: as above
[1] = substrate: c1cc[n+]2c(c1)-c1cccc[n+]1CC2; assay: cells, lysate or membranes

Molecule	Km (OsLAT5) [µM]	Km (OsLAT1) [µM]	Km [1] [µM]
c1cc[n+]2c(c1)-c1cccc[n+]1CC2 [diquat, 1,10-ethylene-2,20-bipyridinium dibromide]	13.8 ± 3.24		
C[n+]1ccc(-c2cc[n+](C)cc2)cc1 [paraquat]	11.7 ± 4.04	40.8 ± 9.61	
OsLAT1 (Oryza sativa Japonica Group) (protein) MADTGGRPEVSLATVRSPGHPAASTTAAAAADLGHADTGQEKPTVESAQPANGAAPMGECGTEYRGLPDGDAGGPMPSSARTVSMIPLIFLIFYEVSGGPFGIEDSVGAAGPLLAIIGFLVLPVIWSIPEALITAELGAMFPENGGYVVWVASALGPYWGFQQGWMKWLSGVIDNALYPVLFLDYLKSGVPALGGGAPRAFAVVGLTAVLTLLNYRGLTVVGWVAICLGVFSLLPFFVMGLIALPKLRPARWLVIDLHNVDWNLYLNTLFWNLNYWDSISTLAGEVKNPGKTLPKALFYAVIFVVVAYLYPLLAGTGAVPLDRGQWTDGYFADIAKLLGGAWLMWWVQSAAALSNMGMFVAEMSSDSYQLLGMAERGMLPSFFAARSRYGTPLAGILFSASGVLLLSMMSFQEIVAAENFLYCFGMLLEFVAFILHRVRRPDAARPYRVPLGTAGCVAMLVPPTALIAVVLALSTLKVAVVSLGAVAMGLVLQPALRFVEKKRWLRFSVNPDLPEIGVIRPPAAPDEPLVP			23.98 ± 6.77
